Test results: patent publication US20070281046A1, “Method for removing organic contaminants from Chinese herb medicines” (Committee on Chinese Medicine and Pharmacy, Department of …, priority 2006, published 2007)

Test: PCNB concentration after gamma irradiation in samples of P. quinquefolium and in methanol solution
Type: physicochemical
Details: for concentration of the remaining PCNB / concentration of the remaining PCNB as compared to before treatment: 2 ppm PCNB in methanol solution
[1] = P. quinquefolium samples containing 2 ppm PCNB, 20 kGy

O=[N+]([O-])c1c(Cl)c(Cl)c(Cl)c(Cl)c1Cl [PCNB, pentachloronitrobenzene]
concentration of the remaining PCNB (20 kGy): 0.056 ppm
concentration of the remaining PCNB as compared to before treatment (20 kGy): 2.79%
concentration of the remaining PCNB (25 kGy): 0.008 ppm
concentration of the remaining PCNB as compared to before treatment (25 kGy): 0.86%
PCNB concentration as % of the original concentration [1]: 4.01%
PCNB concentration remaining [1]: 0.08 ppm
